Laboratory results as given in ChEMBL document CHEMBL1155672, “Secobotrytriendiol and related sesquiterpenoids: new phytotoxic metabolites from Botrytis cinerea” (J Nat Prod, 2000).
Calls of active or inactive are those of the source. The rule behind the calls is not given here.

Key:
Assay type in all cases: functional, organism-based
Nicotiana tabacum [1] = experiment: Phytotoxicity against Nicotiana tabacum at 500 ppm after 7 days
Nicotiana tabacum [2] = experiment: Phytotoxicity against Nicotiana tabacum at 250 ppm after 7 days
Nicotiana tabacum [3] = experiment: Phytotoxicity against Nicotiana tabacum at 1000 ppm after 7 days

SMILES	Activity (Nicotiana tabacum [1])	also measured
C=CC1=C(/C(=C\C)CO)[C@@](C)(CO)CC1(C)C	Active	–
Cc1ccc2c(c1CO)[C@@](C)(CO)CC2(C)C	Active	–
CC1(C)C[C@](C)(CO)c2c1ccc(CO)c2CO	–	Activity (Nicotiana tabacum [2]): Active
CO[C@H]1O[C@H](OC)[C@@]2(C)CC(C)(C)[C@@H]3[C@@H](OC(C)=O)C[C@@H](C)[C@H]1[C@@]32O	–	Activity (Nicotiana tabacum [3]): Active
COC(=O)[C@H]1[C@H](C)C[C@H](OC(C)=O)[C@H]2C(C)(C)C[C@](C)(CO)[C@@]12O	Active	–
